The results in this text go back to US11180462B2, “Microbiocidal oxadiazole derivatives” (SYNGENTA PARTICIPATIONS AG, priority 2015, dated 2021).

This experiment has as its system Glomerella lagenarium (Colletotrichum lagenarium). Description: Fungicidal activity against Glomerella lagenarium (Colletotrichum lagenarium) liquid culture / cucumber / preventative (anthracnose). Type of experiment: cell-based. To be noted: Colletotrichum orbiculare; 20 ppm in the applied formulation; liquid culture (PDB), growth inhibition measured photometrically after 3 to 4 days; compared to untreated control; read-out: disease control. The procedure: Mycelia fragments or conidia suspensions of a fungus prepared either freshly from liquid cultures of the fungus or from cryogenic storage, are directly mixed into nutrient broth. DMSO solutions of the test compound (max. 10 mg/ml) are diluted with 0.025% Tween20 by a factor of 50 and 10 μl of this solution is pipetted into a microtiter plate (96-well format). The nutrient broth containing the fungal spores/mycelia fragments is then added to give an end concentration of the tested compound. The test plates are incubated in the dark at 24° C. and 96% relative humidity. The inhibition of fungal growth is determined photometrically after 2 to 7 days, depending on the pathosystem, and percent antifungal activity relative to the untreated check is calculated.
Fungicidal activity against Glomerella lagenarium (Colletotrichum lagenarium) liquid culture/cucumber/Preventative (Anthracnose)
Conidia of the fungus from cryogenic storage are directly mixed into nutrient broth (PDB—potato dextrose broth). After placing a (DMSO) solution of test compound into a microtiter plate (96-well format), the nutrient broth containing the fungal spores is added.
The following compounds at 20 ppm in the applied formulation give at least 80% disease control in this test when compared to untreated control under the same conditions, which show extensive disease development.

For `CCC(C)N(Cc1ccc(-c2noc(C(F)(F)F)n2)cc1)C(=O)CC(C)C` (stereo not drawn) [Compound 1.380, 3-methyl-N-sec-butyl-N-[[4-[5-(trifluoromethyl)-1,2,4-oxadiazol-3-yl]phenyl]methyl]-butanamide], the inhibition of growth at 20 ppm is not below 80%.

Take `O=C(CCl)N(Cc1ccc(-c2noc(C(F)(F)F)n2)cc1)OCC=C(Cl)Cl` [Compound 1.538, 2-chloro-N-(3,3-dichloroallyloxy)-N-[[4-[5-(trifluoromethyl)-1,2,4-oxadiazol-3-yl]phenyl]methyl]-acetamide]: the inhibition of growth at 20 ppm is not below 80%.

As for `CCCCON(Cc1ccc(-c2noc(C(F)(F)F)n2)cc1)C(=O)C1CC1` [Compound 1.601, N-butoxy-N-[[4-[5-(trifluoromethyl)-1,2,4-oxadiazol-3-yl]phenyl]methyl]-cyclopropane-carboxamide], the inhibition of growth at 20 ppm was not below 80%.

On to `CON(Cc1ccc(-c2noc(C(F)(F)F)n2)cc1)C(=O)c1ccc(Cl)cc1Cl` [Compound 1.9, 2,4-dichloro-N-methoxy-N-[[4-[5-(trifluoromethyl)-1,2,4-oxadiazol-3-yl]phenyl]methyl]-benzamide], for which the inhibition of growth at 20 ppm was not below 80%.

For the compound `CC1(C(=O)N(Cc2ccc(-c3noc(C(F)(F)F)n3)cc2)OCc2ccc(Cl)cc2)COC1` [Compound 1.556, N-[(4-chlorophenyl)-methoxy]-3-methyl-N-[[4-[5-(trifluoromethyl)-1,2,4-oxadiazol-3-yl]phenyl]methyl]-oxetane-3-carboxamide], the inhibition of growth at 20 ppm is not below 80%.

On to `CCC(C)N(Cc1ccc(-c2noc(C(F)(F)F)n2)cc1)C(=O)C1CCC1` (stereo not drawn) [Compound 1.381, N-sec-butyl-N-[[4-[5-(trifluoromethyl)-1,2,4-oxadiazol-3-yl]phenyl]methyl]-cyclobutane-carboxamide], for which the inhibition of growth at 20 ppm is not below 80%.

With `C#CCN(Cc1ccc(-c2noc(C(F)(F)F)n2)cc1)C(=O)Cc1ccccc1OC` [Compound 1.179, 2-(2-methoxyphenyl)-N-prop-2-ynyl-N-[[4-[5-(trifluoromethyl)-1,2,4-oxadiazol-3-yl]phenyl]methyl]-acetamide], the inhibition of growth at 20 ppm is not below 80%.

For the compound `O=C(C1=CCCC1)N(Cc1ccc(-c2noc(C(F)(F)F)n2)cc1)CC1CCCO1` (stereo not drawn) [Compound 1.420, N-(tetrahydrofuran-2-ylmethyl)-N-[[4-[5-(trifluoromethyl)-1,2,4-oxadiazol-3-yl]phenyl]methyl]-cyclopentene-1-carboxamide], the inhibition of growth at 20 ppm is not below 80%.

With `CON(Cc1ccc(-c2noc(C(F)(F)F)n2)cc1)C(=O)OCC(C)(C)C` [Compound 2.18, 2,2-dimethylpropyl N-methoxy-N-[[4-[5-(trifluoromethyl)-1,2,4-oxadiazol-3-yl]phenyl]methyl]-carbamate], the inhibition of growth at 20 ppm is not below 80%.

Turning to `CCC(C)C(=O)N(Cc1ccc(-c2noc(C(F)(F)F)n2)cc1)C(C)CC` (stereo not drawn) [Compound 1.394, 2-methyl-N-sec-butyl-N-[[4-[5-(trifluoromethyl)-1,2,4-oxadiazol-3-yl]phenyl]methyl]-butanamide], the inhibition of growth at 20 ppm was not below 80%.

In the case of `CCCC(=O)N(Cc1ccc(-c2noc(C(F)(F)F)n2)cc1)OCc1ccc(Cl)cc1` [Compound 1.554, N-[(4-chlorophenyl)-methoxy]-N-[[4-[5-(trifluoromethyl)-1,2,4-oxadiazol-3-yl]phenyl]methyl]-butanamide], the inhibition of growth at 20 ppm is not below 80%.

Take `CCCON(Cc1ccc(-c2noc(C(F)(F)F)n2)cc1)C(=O)C1CC1C` (stereo not drawn) [Compound 1.299, 2-methyl-N-propoxy-N-[[4-[5-(trifluoromethyl)-1,2,4-oxadiazol-3-yl]phenyl]methyl]-cyclopropane-carboxamide]: the inhibition of growth at 20 ppm is not below 80%.

In the case of `COCCC(=O)N(Cc1ccc(-c2noc(C(F)(F)F)n2)cc1)OCC=C(Cl)Cl` [Compound 1.533, N-(3,3-dichloroallyloxy)-3-methoxy-N-[[4-[5-(trifluoromethyl)-1,2,4-oxadiazol-3-yl]phenyl]methyl]-propanamide], the inhibition of growth at 20 ppm is not below 80%.

Consider `O=C(Cc1ccccc1)N(Cc1ccc(-c2noc(C(F)(F)F)n2)cc1)CC1CC1` [Compound 1.228, N-(cyclopropylmethyl)-2-phenyl-N-[[4-[5-(trifluoromethyl)-1,2,4-oxadiazol-3-yl]phenyl]methyl]-acetamide], for which the inhibition of growth at 20 ppm was not below 80%.

For the compound `C=CCCC(=O)N(Cc1ccc(-c2noc(C(F)(F)F)n2)cc1)CC1CC1` [Compound 1.208, N-(cyclopropylmethyl)-N-[[4-[5-(trifluoromethyl)-1,2,4-oxadiazol-3-yl]phenyl]methyl]-pent-4-enamide], the inhibition of growth at 20 ppm was not below 80%.

`O=C(C=CC(F)(F)F)N(Cc1ccc(-c2noc(C(F)(F)F)n2)cc1)CC1CCCO1` (stereo not drawn) [Compound 1.425, 4,4,4-trifluoro-N-(tetrahydrofuran-2-ylmethyl)-N-[[4-[5-(trifluoromethyl)-1,2,4-oxadiazol-3-yl]phenyl]methyl]-but-2-enamide]: the inhibition of growth at 20 ppm was not below 80%.

With `CON(C(=O)CC(F)(F)F)C(C)c1ccc(-c2noc(C(F)(F)F)n2)cc1` (stereo not drawn) [Compound 1.277, 3,3,3-trifluoro-N-methoxy-N-[1-[4-[5-(trifluoromethyl)-1,2,4-oxadiazol-3-yl]phenyl]ethyl]-propanamide], the inhibition of growth at 20 ppm is not below 80%.

Take `CCCON(Cc1ccc(-c2noc(C(F)(F)F)n2)cc1)C(=O)CC1CC1` [Compound 1.289, 2-cyclopropyl-N-propoxy-N-[[4-[5-(trifluoromethyl)-1,2,4-oxadiazol-3-yl]phenyl]methyl]-acetamide]: the inhibition of growth at 20 ppm was not below 80%.

Regarding `CON(Cc1ccc(-c2noc(C(F)(F)F)n2)cc1)C(=O)Cc1ccc(C(F)(F)F)cc1` [Compound 1.68, N-methoxy-N-[[4-[5-(trifluoromethyl)-1,2,4-oxadiazol-3-yl]phenyl]methyl]-2-[4-(trifluoromethyl)-phenyl]acetamide], the inhibition of growth at 20 ppm is not below 80%.

Take `CON(Cc1ccc(-c2noc(C(F)(F)F)n2)cc1)C(=O)OCc1ccccc1` [Compound 2.10, benzyl N-methoxy-N-[[4-[5-(trifluoromethyl)-1,2,4-oxadiazol-3-yl]phenyl]methyl]-carbamate]: the inhibition of growth at 20 ppm was not below 80%.

Regarding `O=C(CCl)N(Cc1ccc(-c2noc(C(F)(F)F)n2)cc1)OCc1ccc(Cl)cc1` [Compound 1.553, 2-chloro-N-[(4-chlorophenyl)-methoxy]-N-[[4-[5-(trifluoromethyl)-1,2,4-oxadiazol-3-yl]phenyl]methyl]-acetamide], the inhibition of growth at 20 ppm is not below 80%.

Regarding `CCC(CC(=O)N(Cc1ccc(-c2noc(C(F)(F)F)n2)cc1)C1CC1)C(F)(F)F` (stereo not drawn) [Compound 1.148, N-cyclopropyl-3-(trifluoromethyl)-N-[[4-[5-(trifluoromethyl)-1,2,4-oxadiazol-3-yl]phenyl]methyl]-pentanamide], the inhibition of growth at 20 ppm was not below 80%.

For `CC(=O)C=CC(=O)N(Cc1ccc(-c2noc(C(F)(F)F)n2)cc1)CC1CCCO1` (stereo not drawn) [Compound 1.439, 4-oxo-N-(tetrahydrofuran-2-ylmethyl)-N-[[4-[5-(trifluoromethyl)-1,2,4-oxadiazol-3-yl]phenyl]methyl]-pent-2-enamide], the inhibition of growth at 20 ppm is not below 80%.

Turning to `CCCON(Cc1ccc(-c2noc(C(F)(F)F)n2)cc1)C(=O)CC(F)(F)F` [Compound 1.318, 3,3,3-trifluoro-N-propoxy-N-[[4-[5-(trifluoromethyl)-1,2,4-oxadiazol-3-yl]phenyl]methyl]-propanamide], the inhibition of growth at 20 ppm is not below 80%.

As for `CCC(C)N(Cc1ccc(-c2noc(C(F)(F)F)n2)cc1)C(=O)C1(F)CC1` (stereo not drawn) [Compound 1.393, 1-fluoro-N-sec-butyl-N-[[4-[5-(trifluoromethyl)-1,2,4-oxadiazol-3-yl]phenyl]methyl]-cyclopropane-carboxamide], the inhibition of growth at 20 ppm is not below 80%.

Consider `CCCON(Cc1ccc(-c2noc(C(F)(F)F)n2)cc1)C(=O)C1=CCCC1` [Compound 1.291, N-propoxy-N-[[4-[5-(trifiuoromethyl)-1,2,4-oxadiazol-3-yl]phenyl]methyl]-cyclopentene-1-carboxamide], for which the inhibition of growth at 20 ppm is not below 80%.

For `CC1(C(=O)N(Cc2ccc(-c3noc(C(F)(F)F)n3)cc2)OCC=C(Cl)Cl)COC1` [Compound 1.544, N-(3,3-dichloroallyloxy)-3-methyl-N-[[4-[5-(trifluoromethyl)-1,2,4-oxadiazol-3-yl]phenyl]methyl]-oxetane-3-carboxamide], the inhibition of growth at 20 ppm was not below 80%.

`COCC(=O)N(Cc1ccc(-c2noc(C(F)(F)F)n2)cc1)OCC=C(Cl)Cl` [Compound 1.535, N-(3,3-dichloroallyloxy)-2-methoxy-N-[[4-[5-(trifluoromethyl)-1,2,4-oxadiazol-3-yl]phenyl]methyl]-acetamide]: the inhibition of growth at 20 ppm was not below 80%.

Consider `CON(C(=O)c1ccoc1)C(C)c1ccc(-c2noc(C(F)(F)F)n2)cc1` (stereo not drawn) [Compound 1.278, N-methoxy-N-[1-[4-[5-(trifluoromethyl)-1,2,4-oxadiazol-3-yl]phenyl]ethyl]furan-3-carboxamide], for which the inhibition of growth at 20 ppm is not below 80%.

Take `CCCON(Cc1ccc(-c2noc(C(F)(F)F)n2)cc1)C(=O)C1CCCC1` [Compound 1.290, N-propoxy-N-[[4-[5-(trifluoromethyl)-1,2,4-oxadiazol-3-yl]phenyl]methyl]-cyclopentane-carboxamide]: the inhibition of growth at 20 ppm is not below 80%.
